Measurements reported in patent US6734301B2, “2,3,4,5-Tetrahydro-1H-[1,4]diazepino[1,7-a]indole compounds” (Pharmacia & Upjohn Company, priority 2000, dated 2004).
Counter-ions that a name gives are not always drawn.

| melting point | SMILES |
| --- | --- |
| 77 to 80 °C | NCCc1c2n(c3ccccc13)CCNCC2 |
| 177 to 180 °C | COc1ccc(NC(=O)C(=O)c2c3n(c4ccccc24)CCNCC3)cc1 |
| 221 to 223 °C | COc1ccc(NC(=O)C(=O)c2c3n(c4ccccc24)CCNCC3)cc1Cl |
| 157 to 160 °C | O=C(Nc1ccccc1)C(=O)c1c2n(c3ccccc13)CCNCC2 |
| 167 to 168 °C | O=Cc1c2n(c3ccccc13)CCNCC2 |
| 214 to 215 °C | NC(=O)C(=O)c1c2n(c3ccccc13)CCNCC2 |
| 131 to 133 °C | O=C(c1c2n(c3ccccc13)CCNCC2)C(F)(F)F |
| 184.5 to 185.5 °C | O=C(Nc1ccc(F)cc1F)C(=O)c1c2n(c3ccccc13)CCNCC2 |
| 161 to 164 °C | N#Cc1c2n(c3ccccc13)CCNCC2 |
| > 250 °C | Clc1c2n(c3ccccc13)CCNCC2 (as salt: hydrochloride) |

The next lines start with the compound.

| SMILES | melting point |
| --- | --- |
| O=Cc1c2n(c3cc(Br)ccc13)CCNCC2 | 186 to 188 °C |
| CN1CCc2cc3ccccc3n2CC1 | 59 to 60 °C |
| CCN1CCc2cc3ccccc3n2CC1 | 44 to 46 °C |
| CCCN1CCc2cc3ccccc3n2CC1 (as salt: hydrochloride) | 257 to 259 °C |
| Brc1ccc2cc3n(c2c1)CCNCC3 (as salt: hydrochloride) | 292 to 295 °C |
| CC(C)(C)OC(=O)N1CCc2cc3ccccc3n2CC1 [Example 51, tert-butyl 1,2,4,5-tetrahydro-3H-[1,4]diazepino[1,7-a]indole-3-carboxylate] | 129 to 132 °C |
| O=[N+]([O-])/C=C/c1c2n(c3ccccc13)CCNCC2 [Example 52, 11-[(E)-2-nitroethenyl]-2,3,4,5-tetrahydro-1H-[1,4]diazepino[1,7-a]indole] | 225 to 226 °C |
